In PMC6844382, “Design, synthesis and evaluation of quinolinone derivatives containing dithiocarbamate moiety as multifunctional AChE inhibitors for the treatment of Alzheimer’s disease” (Journal of Enzyme Inhibition and Medicinal Chemistry, 2019):
Where two headings read alike, the source gives them in different places.

Legend:
eeAChE = target: T1, eeAChE (Electrophorus electricus, UniProt O42275); assay: In vitro inhibition of eeAChE (Ellman method); assay type: biochemical, electric eel; settings: for inhibition at 10 µM: read-out: eeAChE Inhibition (%), inhibitor at 10 μM
T1 construct: eeAChE (from electric eel); purchased Sigma-Aldrich (St. Louis, MO, USA); host or cells: electric eel
Procedure: (§1) The in vitro inhibitory activities of test compounds against AChE and BuChE were determined by the spectrophotometric method of Ellman[25]. […] For each assay, 160 μL of 1.5 mM DTNB, 50 μL of AChE (0.22 U/mL for eeAChE; 0.05 U/mL for hAChE) or eqBuChE (0.12 U/mL) were incubated with 10 μL of different concentrations of test compounds at 37 °C for 6 min.

eqBuChE = target: T2, eqBuChE (Equus caballus, UniProt P81908); assay: In vitro inhibition of eqBuChE (Ellman method); assay type: biochemical, equine; settings: for inhibition at 10 µM: read-out: eqBuChE Inhibition (%)
T2 construct: eqBuChE (from equine serum); purchased Sigma-Aldrich (St. Louis, MO, USA); host or cells: equine serum
Procedure: as §1

[1] = from PAMPA-BBB Pe
Procedure: (§2) Afterwards, the acceptor filter plate was carefully placed on the donor plate to make the coated membrane touch both donor solution and acceptor buffer. […] Pe was calculated by the following expression: Pe = {−VdVa/[(Vd + Va)At]}ln (1-drugacceptor/drugequilibrium), where Vd is the volume of donor well, Va is volume in acceptor well, A is the filter area, t is the permeation time, drugacceptor is the absorbance obtained in the acceptor well and drugequilibrium is the theoretical equilibrium absorbance. Each compound was analysed at five wavelengths in four wells at least three independent runs, and the results were expressed as mean ± SD.

in vitro = settings: PAMPA
Procedure: as §2

[2] = target: T3, AChE-induced Aβ1-42 aggregation (Electrophorus electricus, UniProt O42275); assay: Inhibition of AChE-induced Aβ1-42 aggregation (ThT assay); assay type: biochemical; settings: inhibitor 100 μM; thioflavin-T fluorescence
T3 construct: eeAChE (from electric eel); purchased eeAChE: Sigma-Aldrich (St. Louis, MO, USA); Aβ1-42: Royobiotech Co., Ltd (Shanghai, China)
Procedure: 1, 1, 1, 3, 3, 3-hexafluoro-2-propanol (HFIP) and Thioflavin T (ThT) were obtained from TCI (Shanghai) Development. β-Amyloid1-42 (Aβ1-42), supplied as trifluoroacetate salt, and eeAChE were purchased from Royobiotech Co., Ltd (Shanghai, China) and Sigma-Aldrich (St. Louis, MO, USA), respectively. For co-incubation experiments, aliquots of Aβ1-42 peptide and AChE in presence or absence of the test compounds were incubated for 48 h at 37 °C. […] The percent inhibition of the AChE-induced Aβ aggregation due to the presence of inhibitor was calculated by the following formula: 100 – (IFi/IFo*100), where IFi and IFo are the fluorescence intensities obtained for Aβ1-42 aggregation in the presence and in the absence of inhibitor, respectively. Each assay was run in triplicate and each reaction was repeated at least three independent times.

[3] = target: T4, self-induced Aβ1-42 aggregation (Homo sapiens, UniProt P05067); assay: Inhibition of self-induced Aβ1-42 aggregation (ThT assay); assay type: biochemical; settings: read-out: Inhibition of Aβ1–42 aggregation (%) Self-induced
T4 construct: Aβ1-42 was obtained from Royobiotech Co., Ltd (Shanghai, China); purchased Royobiotech Co., Ltd (Shanghai, China)
Procedure: The inhibitory activities of compounds 4c-f and 9a-b on self-induced Aβ1-42 aggregation were also measured by the ThT assay. HFIP and ThT were purchased from TCI (Shanghai) Development. Aβ1-42 was obtained from Royobiotech Co., Ltd (Shanghai, China). The monomeric Aβ1-42 samples were prepared by HFIP and diluted with a 50 mM phosphate buffer (pH 7.4) to give a 25 μM solution. The test compound was dissolved in DMSO (250 μM) for storage and needed not to be diluted prior to use. […]. Then, 200 μL of 5 μM ThT in 50 mM glycine-NaOH buffer (pH 8.0) was added, and the percent inhibition was calculated by the method same as that of AChE-induced Aβ1–42 experiment.

hAChE = hAChE (Homo sapiens, UniProt P22303); assay: In vitro inhibition of hAChE (Ellman method); assay type: biochemical; design: Acetylcholinesterase (AChE, from electric eel and human erythrocytes); purchased Sigma-Aldrich (St. Louis, MO, USA); host or cells: human erythrocytes
Procedure: as §1

[4] = means ± SD of three experiments

T2 sequence (P81908 whole entry): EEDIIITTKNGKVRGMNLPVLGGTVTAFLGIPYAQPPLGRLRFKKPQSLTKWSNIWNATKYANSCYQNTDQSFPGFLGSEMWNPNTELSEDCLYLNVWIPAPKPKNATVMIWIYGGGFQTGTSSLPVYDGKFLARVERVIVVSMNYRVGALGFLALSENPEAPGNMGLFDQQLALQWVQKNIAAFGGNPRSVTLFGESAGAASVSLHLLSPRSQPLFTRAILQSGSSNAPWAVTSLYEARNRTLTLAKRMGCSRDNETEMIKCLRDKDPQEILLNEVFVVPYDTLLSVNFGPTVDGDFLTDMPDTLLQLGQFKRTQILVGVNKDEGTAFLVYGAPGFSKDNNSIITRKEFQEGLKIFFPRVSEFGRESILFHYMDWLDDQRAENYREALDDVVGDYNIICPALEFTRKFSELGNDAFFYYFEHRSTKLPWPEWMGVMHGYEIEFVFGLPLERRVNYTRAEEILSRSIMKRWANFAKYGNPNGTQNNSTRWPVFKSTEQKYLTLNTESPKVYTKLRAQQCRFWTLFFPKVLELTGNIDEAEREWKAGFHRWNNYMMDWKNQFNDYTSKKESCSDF
hAChE, sequence (P22303 32-617 isoform P22303-2 limits assumed): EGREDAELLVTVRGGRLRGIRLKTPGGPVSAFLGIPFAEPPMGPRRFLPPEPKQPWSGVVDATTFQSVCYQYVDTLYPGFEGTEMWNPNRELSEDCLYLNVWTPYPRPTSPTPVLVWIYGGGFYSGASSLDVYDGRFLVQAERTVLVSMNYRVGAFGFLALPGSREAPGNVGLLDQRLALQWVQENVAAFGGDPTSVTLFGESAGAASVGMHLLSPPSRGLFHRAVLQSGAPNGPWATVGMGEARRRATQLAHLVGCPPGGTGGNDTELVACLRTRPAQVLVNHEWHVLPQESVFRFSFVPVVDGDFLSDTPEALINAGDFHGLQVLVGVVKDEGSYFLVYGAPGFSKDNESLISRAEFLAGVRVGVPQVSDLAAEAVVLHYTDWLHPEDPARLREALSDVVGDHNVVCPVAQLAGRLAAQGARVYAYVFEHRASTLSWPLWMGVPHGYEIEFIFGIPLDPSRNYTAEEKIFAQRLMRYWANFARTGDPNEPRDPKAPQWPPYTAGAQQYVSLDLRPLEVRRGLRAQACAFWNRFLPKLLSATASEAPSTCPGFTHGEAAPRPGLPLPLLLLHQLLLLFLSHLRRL
T4 sequence (P05067 672-713): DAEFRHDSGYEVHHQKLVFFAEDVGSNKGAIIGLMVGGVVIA
T3 sequence (O42275 24-633): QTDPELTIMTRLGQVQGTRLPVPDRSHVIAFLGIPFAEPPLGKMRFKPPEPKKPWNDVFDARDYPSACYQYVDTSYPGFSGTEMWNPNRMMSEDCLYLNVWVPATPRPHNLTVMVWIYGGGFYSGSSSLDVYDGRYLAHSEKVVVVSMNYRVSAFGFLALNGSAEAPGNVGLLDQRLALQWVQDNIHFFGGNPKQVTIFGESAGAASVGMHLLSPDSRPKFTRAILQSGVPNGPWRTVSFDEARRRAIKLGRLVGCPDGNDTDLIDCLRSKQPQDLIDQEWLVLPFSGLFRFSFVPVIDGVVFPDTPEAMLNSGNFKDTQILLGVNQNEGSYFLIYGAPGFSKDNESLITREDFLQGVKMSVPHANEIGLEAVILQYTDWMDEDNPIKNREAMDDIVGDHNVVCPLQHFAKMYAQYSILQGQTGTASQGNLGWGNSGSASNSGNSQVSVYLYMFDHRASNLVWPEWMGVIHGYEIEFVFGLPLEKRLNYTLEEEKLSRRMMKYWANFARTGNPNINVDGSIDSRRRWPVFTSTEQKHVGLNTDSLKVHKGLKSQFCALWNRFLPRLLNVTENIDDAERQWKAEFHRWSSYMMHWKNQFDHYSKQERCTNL
T1 sequence (O42275 24-633): as above

Compound	inhibition at 10 µM (eeAChE; [4])	inhibition at 10 µM (eqBuChE)	Prediction of penetration into CNS [1]	Papp at 18 h, 25 μg/mL (in vitro)	IC50 (eeAChE)	inhibition at 100 µM [2]	inhibition at 25 µM [3]	IC50 (hAChE)	fold less inhibitory activity than compound 4c on AChE (eeAChE; ratio of eeAChE IC50 values)	IC50 (eqBuChE)	eeAChE Inhibition (%) (eeAChE; inhibitor at 10 μM, means ± SD of three experiments, 10 µM)	inhibition at 25 µM ([3]; inhibitor 25 μM, thioflavin-T fluorescence)
O=c1ccc2ccc(OCCSC(=S)N3CCCCC3)cc2[nH]1 [4a, 2-((2-oxo-1,2-dihydroquinolin-7-yl)oxy)ethyl piperidine-1-carbodithioate]	45.3 ± 0.35%	16.7 ± 2.36%	CNS+ (CNS + is predicted as high BBB permeation with Pe (×10^6 cm/s) > 3.33)	8.57 ± 1.23 ×10⁻⁶ cm/s								
O=c1ccc2ccc(OCCCSC(=S)N3CCCCC3)cc2[nH]1 [4b, 3-((2-oxo-1,2-dihydroquinolin-7-yl)oxy)propyl piperidine-1-carbodithioate]		16.6 ± 4.01%	CNS+ (CNS + is predicted as high BBB permeation with Pe (×10^6 cm/s) > 3.33)	8.78 ± 1.11 ×10⁻⁶ cm/s	3960 ± 710 nM							
O=c1ccc2ccc(OCCCCCSC(=S)N3CCCCC3)cc2[nH]1 [4d, 5-((2-oxo-1,2-dihydroquinolin-7-yl)oxy)pentyl piperidine-1-carbodithioate]		20.9 ± 2.61%	CNS+ (CNS + is predicted as high BBB permeation with Pe (×10^6 cm/s) > 3.33)	8.82 ± 1.34 ×10⁻⁶ cm/s	240 ± 20 nM	24.1 ± 3.04%	26 ± 3.01%	570 ± 10 nM				
O=c1ccc2ccc(OCCCCCCSC(=S)N3CCCCC3)cc2[nH]1 [4e, 6-((2-oxo-1,2-dihydroquinolin-7-yl)oxy)hexyl piperidine-1-carbodithioate]		17.5 ± 2.17%	CNS+ (CNS + is predicted as high BBB permeation with Pe (×10^6 cm/s) > 3.33)	9.85 ± 0.98 ×10⁻⁶ cm/s	350 ± 20 nM	20.3 ± 2.21%	25.8 ± 1.43%	380 ± 20 nM				
CC1CCN(C(=S)SCCCCOc2ccc3ccc(=O)[nH]c3c2)CC1 [4f, 4-((2-oxo-1,2-dihydroquinolin-7-yl)oxy)butyl 4-methylpiperidine-1-carbodithio-ate]		37.2 ± 1.22%	CNS+ (CNS + is predicted as high BBB permeation with Pe (×10^6 cm/s) > 3.33)	6.3 ± 0.86 ×10⁻⁶ cm/s	690 ± 220 nM	12.1 ± 3.18%	20.4 ± 3.22%	1210 ± 330 nM	3 fold			
CC(C)C1CCN(C(=S)SCCCCOc2ccc3ccc(=O)[nH]c3c2)CC1 [4g, 4-((2-oxo-1,2-dihydroquinolin-7-yl)oxy)butyl 4-isopropylpiperidine-1-carbodithi-oate]		31.4 ± 3.15%	CNS+ (CNS + is predicted as high BBB permeation with Pe (×10^6 cm/s) > 3.33)	7.14 ± 1.97 ×10⁻⁶ cm/s	9610 ± 1120 nM							
O=c1ccc2ccc(OCCCCSC(=S)N3CCC(N4CCCCC4)CC3)cc2[nH]1 [4h, 4-((2-oxo-1,2-dihydroquinolin-7-yl)oxy)butyl [1,4′-bipiperidine]-1′-carbodithio-ate]			CNS+ (CNS + is predicted as high BBB permeation with Pe (×10^6 cm/s) > 3.33)	6.42 ± 1.02 ×10⁻⁶ cm/s	3800 ± 350 nM					2000 ± 230 nM		
O=c1ccc2ccc(OCCCCSC(=S)N3CCC(O)CC3)cc2[nH]1 [4i, 4-((2-oxo-1,2-dihydroquinolin-7-yl)oxy)butyl 4-hydroxypiperidine-1-carbodithio-ate]	20.2 ± 3.27%	15.8 ± 2.45%	CNS± (CNS ± is uncertain for BBB permeation with 1.51 < Pe (×10^6 cm/s) < 3.33)	2.83 ± 0.65 ×10⁻⁶ cm/s								
O=c1ccc2ccc(OCCCCSC(=S)N3CCC(CO)CC3)cc2[nH]1 [4j, 4-((2-oxo-1,2-dihydroquinolin-7-yl)oxy)butyl 4-(hydroxymethyl)piperidine-1-ca-rbodithioate]	14.5 ± 2.44%	23.9 ± 2.03%	CNS± (CNS ± is uncertain for BBB permeation with 1.51 < Pe (×10^6 cm/s) < 3.33)	3.25 ± 0.82 ×10⁻⁶ cm/s								
CN1CCN(C(=S)SCCCCOc2ccc3ccc(=O)[nH]c3c2)CC1 [4k, 4-((2-oxo-1,2-dihydroquinolin-7-yl)oxy)butyl 4-methylpiperazine-1-car-bodithioate]	23.1 ± 5.54%	28.6 ± 3.44%	CNS+ (CNS + is predicted as high BBB permeation with Pe (×10^6 cm/s) > 3.33)	4.54 ± 0.84 ×10⁻⁶ cm/s								
O=c1ccc2ccc(OCCCCSC(=S)N3CCOCC3)cc2[nH]1 [4l, 4-((2-oxo-1,2-dihydroquinolin-7-yl)oxy)butyl morpholine-4-carbodithioate]	12.3 ± 1.76%	30.5 ± 4.11%	CNS+ (CNS + is predicted as high BBB permeation with Pe (×10^6 cm/s) > 3.33)	7.35 ± 1.05 ×10⁻⁶ cm/s								
O=c1ccc2ccc(OCCCCSC(=S)N3CCCC3)cc2[nH]1 [4m, 4-((2-oxo-1,2-dihydroquinolin-7-yl)oxy)butyl pyrrolidine-1-carbodithioate]	< 50%	7.63 ± 0.92%	CNS+ (CNS + is predicted as high BBB permeation with Pe (×10^6 cm/s) > 3.33)	10 ± 2.63 ×10⁻⁶ cm/s							31.43 ± 1.65%	
Cc1cc(=O)[nH]c2cc(OCCCCSC(=S)N3CCCCC3)ccc12 [9a, 4-((4-methyl-2-oxo-1,2-dihydroquinolin-7-yl)oxy)butylpiperidine-1-carbodithioate]		18.3 ± 3.15%	CNS+ (CNS + is predicted as high BBB permeation with Pe (×10^6 cm/s) > 3.33)	8.79 ± 2.1 ×10⁻⁶ cm/s	300 ± 120 nM	14.2 ± 2.85%	33.4 ± 4.85%	760 ± 100 nM				
Cc1c(C)c2ccc(OCCCCSC(=S)N3CCCCC3)cc2[nH]c1=O [9b, 4-((3,4-dimethyl-2-oxo-1,2-dihydroquinolin-7-yl)oxy)butylpiperidine-1-carbodithioate]		21.2 ± 1.6%	CNS+ (CNS + is predicted as high BBB permeation with Pe (×10^6 cm/s) > 3.33)	8.67 ± 1.76 ×10⁻⁶ cm/s	340 ± 10 nM	24.4 ± 3.03%	35.3 ± 2.17%	390 ± 10 nM				
COc1cc(/C=C/C(=O)CC(=O)/C=C/c2ccc(O)c(OC)c2)ccc1O [Curcumin, reference compound]												37.3 ± 2.76%
CC(=O)[C@H]1CC[C@H]2[C@@H]3CCC4=CC(=O)CC[C@]4(C)[C@H]3CC[C@]12C [Progesterone, reference compound]				10.4 ± 1.9 ×10⁻⁶ cm/s								
